Results reported in patent publication US7704995B2 (Exelixis, Inc., priority 2003, dated 2010).

Each compound was assayed against T1, Chk1 (Homo sapiens, UniProt O14757) (assay: Chk1 kinase assay: incorporation of γ-33P ATP into immobilized myelin basic protein). Details: Table 11, Chk1 only; class symbols A-D; read-out: Chk1 IC50.
T1 construct: purchased Upstate Biotechnology
T1 sequence (O14757 1-476): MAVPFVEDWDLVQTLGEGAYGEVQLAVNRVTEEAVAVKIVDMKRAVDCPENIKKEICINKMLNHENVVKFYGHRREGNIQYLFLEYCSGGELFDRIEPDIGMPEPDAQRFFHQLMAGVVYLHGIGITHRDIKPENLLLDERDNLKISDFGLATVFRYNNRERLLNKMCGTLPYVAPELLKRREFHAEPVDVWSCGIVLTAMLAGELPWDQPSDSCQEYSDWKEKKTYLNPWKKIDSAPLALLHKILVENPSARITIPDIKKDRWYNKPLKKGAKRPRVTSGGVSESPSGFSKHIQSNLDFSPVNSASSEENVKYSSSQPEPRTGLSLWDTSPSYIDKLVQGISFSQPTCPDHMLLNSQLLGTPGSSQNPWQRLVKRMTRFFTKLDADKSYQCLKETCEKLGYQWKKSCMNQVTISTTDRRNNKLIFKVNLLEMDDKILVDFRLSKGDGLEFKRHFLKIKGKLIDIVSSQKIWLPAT
Format: biochemical
How it was run: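 Plates coated with MBP, then kinase reactions in Hepes pH 7.6 buffer with 10 mM MgCl2 and 1% DMSO were started by adding unlabeled plus γ-33P ATP (10 μM for Chk1 at 10 nM enzyme; 30 μM for Chk2 at 20 nM enzyme). After 1 h at room temperature, plates were washed and counted.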

IC50, < 50 nM:
Nc1ncc(-c2cccc(C(=O)NCc3cccc(-c4ccccc4)c3)c2)nc1C(=O)N[C@H]1CCCNC1 [Example 1034, 3-amino-6-(3-{[(biphenyl-3-ylmethyl)amino]carbonyl}phenyl)-N-[(3S)-piperidin-3-yl]pyrazine-2-carboxamide]
Cc1ccccc1CNC(=O)c1cccc(-c2cnc(N)c(C(=O)N[C@H]3CCCNC3)n2)c1 [Example 1035, 3-amino-6-[3-({[(2-methylphenyl)methyl]amino}carbonyl)phenyl]-N-[(3S)-piperidin-3-yl]pyrazine-2-carboxamide]
Cc1ccc(C)c(CNC(=O)c2cccc(-c3cnc(N)c(C(=O)N[C@H]4CCCNC4)n3)c2)c1 [Example 1036, 3-amino-6-[3-({[(2,5-dimethylphenyl)methyl]amino}carbonyl)phenyl]-N-[(3S)-piperidin-3-yl]pyrazine-2-carboxamide]
Cc1cc(C)cc(CNC(=O)c2cccc(-c3cnc(N)c(C(=O)N[C@H]4CCCNC4)n3)c2)c1 [Example 1037, 3-amino-6-[3-({[(3,5-dimethylphenyl)methyl]amino}carbonyl)phenyl]-N-[(3S)-piperidin-3-yl]pyrazine-2-carboxamide]
Cc1ccc(CNC(=O)c2cccc(-c3cnc(N)c(C(=O)N[C@H]4CCCNC4)n3)c2)c(C)c1 [Example 1038, 3-amino-6-[3-({[(2,4-dimethylphenyl)methyl]amino}carbonyl)phenyl]-N-[(3S)-piperidin-3-yl]pyrazine-2-carboxamide]
COc1cccc(CNC(=O)c2cccc(-c3cnc(N)c(C(=O)N[C@H]4CCCNC4)n3)c2)c1 [Example 1039, 3-amino-6-[3-({[(3-methoxyphenyl)methyl]amino}carbonyl)phenyl]-N-[(3S)-piperidin-3-yl]pyrazine-2-carboxamide]
Nc1ncc(-c2cccc(C(=O)NCc3ccccc3)c2)nc1C(=O)N[C@H]1CCCNC1 [Example 1040, 3-amino-6-{3-[({[phenyl]methyl}amino)carbonyl]phenyl}-N-[(3S)-piperidin-3-yl]pyrazine-2-carboxamide]
COc1cc(CNC(=O)c2cccc(-c3cnc(N)c(C(=O)N[C@H]4CCCNC4)n3)c2)cc(OC)c1 [Example 1041, 3-amino-6-{3-[({[3,5-bis(methyloxy)phenyl]methyl}amino)carbonyl]phenyl}-N-[(3S)-piperidin-3-yl]pyrazine-2-carboxamide]
COc1ccc(CNC(=O)c2cccc(-c3cnc(N)c(C(=O)N[C@H]4CCCNC4)n3)c2)cc1OC [Example 1042, 3-amino-6-{3-[({[3,4-bis(methyloxy)phenyl]methyl}amino)carbonyl]phenyl}-N-[(3S)-piperidin-3-yl]pyrazine-2-carboxamide]
